{
  "source": "patent US8278296B2",
  "about": "“Manipulation of brain CDP-diacylglycerol and uses thereof” (priority 2006, dated 2012)",
  "key": {"phosphatidylinositides": {"test_system": "phosphatidylinositides", "assay": "[3H]inositol phospholipid (phosphatidylinositide) resynthesis in rat brain slices", "type": "cell-based", "conditions": "[…]; frontal cortex or hippocampal tissues; 5 mM LiCl; 90 min"}, "[1]": {"test_system": "CDP-diacylglycerol/inositol phosphate", "assay": "CDP-DG/IP ratio calculated from brain slice data", "type": "cell-based, rat", "conditions": "monoamine receptor agonists; frontal cortex or hippocampal tissues", "description": "FIGS. 9A-9C are ratios of antidepressant-induced CDP-diacylglycerol versus inositol phosphates. The data in FIGS. 1A-1C, 2A-2B, 3A-3C, 4A-4B, and 5A-5C were recalculated by dividing the CDP-diacylglycerol effects of each concentration of each antidepressant agent by the corresponding effects of the agent on inositol phosphate accumulation to yield the CDP-diacylglycerol/inositol phosphate (CDP-DG/IP) ratios shown. […] Data for each agent were analyzed by One-Way ANOVA followed by posthoc Dunnett tests. ^#p<0.05; *p<0.01; compared to the respective control (zero drug concentration).\nAs used herein, the term “CDP-DG/IP ratio” refers to the relative value of an index which is the quotient of a level of cellular CDP-diacylglycerol divided by a level of inositol phosphate in a tissue or cell or tissue cultures thereof, e.g., a mammalian brain tissue or blood platelets, a human brain tissue or blood platelets, or other cells or tissues having the ability to metabolize CDP-diacylglycerol and phosphoinositides. Levels may be determined, but are not limited to, using molar concentration or a radiolabel.\nTo determine if antidepressant agents exert differential effects on CDP-DG production compared to PI hydrolysis, the ratios of CDP-DG production relative to the IPs (CDP-DG/IP ratio) in corresponding treatment conditions were examined.\nCorresponding CDP-DG ratios were calculated as for the antidepressant agents. […] The ratios of CDP-DG production relative to IP accumulation are shown on the far right of the graphs in FIGS. 10A-10C and FIGS. 11A-11D."}, "CDP-diacylglycerol": {"test_system": "CDP-diacylglycerol", "assay": "[3H]CDP-diacylglycerol accumulation in rat brain slices", "type": "cell-based", "conditions": "monoamine receptor agonists; frontal cortex or hippocampal tissues; 5 mM LiCl; 90 min"}, "inositol phosphates": {"test_system": "inositol phosphates", "assay": "[3H]inositol phosphate accumulation in rat brain slices", "type": "cell-based", "conditions": "monoamine receptor agonists; frontal cortex or hippocampal tissues; 5 mM LiCl; 90 min"}, "5HT2 receptor": {"test_system": "5HT2 receptor", "assay": "α-methylserotonin-stimulated IP accumulation in tissues prelabeled with [3H]inositol in presence of antidepressants", "type": "cell-based, rat", "conditions": "hippocampus, frontal cortex, striatum; 60 min; 5 mM LiCl"}},
  "data": [
    {"compound": "CC(N)Cc1c[nH]c2ccc(O)cc12", "note": "(stereo not drawn) [α-methylserotonin]", "values": [
      {"measurement": "effect on PI synthesis", "setting": "phosphatidylinositides", "result": "significant but relatively small effects"},
      {"measurement": "CDP-DG/IP ratio", "setting": "[1]", "result": "no concentration-related increase"},
      {"measurement": "effect on CDP-DG production", "setting": "CDP-diacylglycerol", "result": "significantly increased"},
      {"measurement": "effect on IP accumulation", "setting": "inositol phosphates", "result": "significantly increased"},
      {"measurement": "IP accumulation induced by agonist by itself", "setting": "5HT2 receptor", "result": "significant increases"}
    ]}
  ]
}
